From paper PMC10165273, “Itch receptor MRGPRX4 interacts with the receptor activity–modifying proteins” (The Journal of Biological Chemistry, 2023)
Read-outs that look alike come from different tables or passages of the source.

Biological target: T1, MRGPRX4 (Homo sapiens, UniProt Q96LA9)
T1 construct: expressed in transfected cells; host or cells: HEK293T
Assay: IP1 accumulation HTRF assay, MRGPRX4
Format: cell-based
Design: key to IP1 Basal / IP1 accumulation with YM (Figure 1c) / response to agonist, MRGPRX4 / IP1 accumulation: % IP1: unstimulated mock-transfected = 0%, fully stimulated MRGPRX4 = 100%
Settings: for IP1 accumulation (normalized): Supplementary Figure 5d-g

[1] = Tet-On MRGPRX4, over 1pg/cell Normalized, Dox 3300 ng/mL (Fig. S5C)

T1 sequence (Q96LA9 whole entry): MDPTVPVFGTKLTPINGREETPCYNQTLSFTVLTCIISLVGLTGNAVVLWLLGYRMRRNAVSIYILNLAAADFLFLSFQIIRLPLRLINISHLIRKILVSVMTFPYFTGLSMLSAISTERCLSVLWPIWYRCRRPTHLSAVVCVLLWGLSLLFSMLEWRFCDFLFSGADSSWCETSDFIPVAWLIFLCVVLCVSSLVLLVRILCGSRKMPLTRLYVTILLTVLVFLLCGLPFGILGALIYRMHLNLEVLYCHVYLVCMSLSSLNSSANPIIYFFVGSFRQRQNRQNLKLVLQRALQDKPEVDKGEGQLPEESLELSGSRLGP

In the case of CC(C)[C@H]1CC[C@H](C(=O)N[C@H](Cc2ccccc2)C(=O)O)CC1 [Nateglinide], the EC50 (Tet-On MRGPRX4 1pg/cell, Dox 3300 ng/mL (Fig. S5B), read-out: IP1 EC50) is reported as 9.26 µM, the Emax (Tet-On MRGPRX4 1pg/cell, Dox 3300 ng/mL (Fig. S5B), read-out: IP1 Emax) is reported as 34.4% and the Emax (Tet-On MRGPRX4 1pg/cell, Dox 3300 ng/mL (Fig. S5B), read-out: IP1 span) is reported as 35.4%. For the same molecule, the “IP1 Basal” value (Tet-On MRGPRX4 1pg/cell, No dox (Fig. S5B)) was -1.503, the Emax (Tet-On MRGPRX4 1pg/cell, No dox (Fig. S5B), read-out: IP1 Emax) was 25% and the Emax (Tet-On MRGPRX4 1pg/cell, No dox (Fig. S5B), read-out: IP1 span) was 26.5%. For the same molecule, the “IP1 Basal” value (Tet-On MRGPRX4 2pg/cell, Dox 13 ng/mL (Fig. S5A)) was 6.149, the EC50 (Tet-On MRGPRX4 2pg/cell, Dox 13 ng/mL (Fig. S5A), read-out: IP1 EC50) was 7.35 µM and the Emax (Tet-On MRGPRX4 2pg/cell, Dox 13 ng/mL (Fig. S5A), read-out: IP1 Emax) was 84.9%. For the same molecule, the EC50 (Tet-On MRGPRX4 2pg/cell, Dox 13 ng/mL (Fig. S5A), read-out: IP1 logEC50 (converted)) was 7.35 µM, the Emax (Tet-On MRGPRX4 2pg/cell, Dox 13 ng/mL (Fig. S5A), read-out: IP1 span) was 78.8% and the “IP1 Basal” value (Tet-On MRGPRX4 2pg/cell, Dox 40 ng/mL (Fig. S5A)) was 7.421. The EC50 (Tet-On MRGPRX4 2pg/cell, Dox 40 ng/mL (Fig. S5A), read-out: IP1 EC50) was 6.07 µM, the Emax (Tet-On MRGPRX4 2pg/cell, Dox 40 ng/mL (Fig. S5A), read-out: IP1 Emax) was 87.5% and the Emax (Tet-On MRGPRX4 2pg/cell, Dox 40 ng/mL (Fig. S5A), read-out: IP1 span) was 80.1%. For the same molecule, the “IP1 Basal” value (Tet-On MRGPRX4 2pg/cell, Dox 1100 ng/mL (Fig. S5A)) was 11.03, the Emax (Tet-On MRGPRX4 2pg/cell, Dox 1100 ng/mL (Fig. S5A), read-out: IP1 Emax) was 101% and the EC50 (Tet-On MRGPRX4 2pg/cell, Dox 1100 ng/mL (Fig. S5A), read-out: IP1 logEC50 (converted)) was 5.41 µM. The Emax (Tet-On MRGPRX4 2pg/cell, Dox 1100 ng/mL (Fig. S5A), read-out: IP1 span) was 90.4%, the “IP1 Basal” value (Tet-On MRGPRX4 2pg/cell, Dox 3300 ng/mL (Fig. S5A)) was 10.81 and the EC50 (Tet-On MRGPRX4 2pg/cell, Dox 3300 ng/mL (Fig. S5A), read-out: IP1 EC50) was 6.36 µM. For the same molecule, the Emax (Tet-On MRGPRX4 2pg/cell, Dox 3300 ng/mL (Fig. S5A), read-out: IP1 Emax) was 106%, the Emax (Tet-On MRGPRX4 2pg/cell, Dox 3300 ng/mL (Fig. S5A), read-out: IP1 span) was 95.6% and the “IP1 logEC50” value (Tet-On MRGPRX4 2pg/cell, Dox […] (Fig. S5A)) was -5.040. For the same molecule, the “IP1 Basal” value (Tet-On MRGPRX4 2pg/cell, No dox (Fig. S5A)) was 0.7169, the Emax (Tet-On MRGPRX4 2pg/cell, No dox (Fig. S5A), read-out: IP1 Emax) was 72.3% and the Emax (Tet-On MRGPRX4 2pg/cell, No dox (Fig. S5A), read-out: IP1 span) was 71.5%. For the same molecule, the “IP1 Basal” value (Tet-On MRGPRX4, over 1pg/cell Normalized, Dox 13 ng/mL (Fig. S5C)) was -3.443, the EC50 (Tet-On MRGPRX4, over 1pg/cell Normalized, Dox 13 ng/mL (Fig. S5C), read-out: IP1 EC50) was 19 µM and the Emax (Tet-On MRGPRX4, over 1pg/cell Normalized, Dox 13 ng/mL (Fig. S5C), read-out: IP1 Emax) was 59.2%. For the same molecule, the Emax (Tet-On MRGPRX4, over 1pg/cell Normalized, Dox 13 ng/mL (Fig. S5C), read-out: IP1 span) was 62.7%, the “IP1 Basal” value (Tet-On MRGPRX4, over 1pg/cell Normalized, Dox 40 ng/mL (Fig. S5C)) was -3.289 and the EC50 (Tet-On MRGPRX4, over 1pg/cell Normalized, Dox 40 ng/mL (Fig. S5C), read-out: IP1 EC50) was 13.5 µM. For the same molecule, the Emax (Tet-On MRGPRX4, over 1pg/cell Normalized, Dox 40 ng/mL (Fig. S5C), read-out: IP1 Emax) was 63.5%, the Emax (Tet-On MRGPRX4, over 1pg/cell Normalized, Dox 40 ng/mL (Fig. S5C), read-out: IP1 span) was 66.8% and the “IP1 Basal” value (Tet-On MRGPRX4, over 1pg/cell Normalized, Dox 1100 ng/mL (Fig. S5C)) was -2.284. The EC50 (Tet-On MRGPRX4, over 1pg/cell Normalized, Dox 1100 ng/mL (Fig. S5C), read-out: IP1 EC50) was 10.7 µM, the Emax (Tet-On MRGPRX4, over 1pg/cell Normalized, Dox 1100 ng/mL (Fig. S5C), read-out: IP1 Emax) was 100% and the Emax (Tet-On MRGPRX4, over 1pg/cell Normalized, Dox 1100 ng/mL (Fig. S5C), read-out: IP1 span) was 102%. For the same molecule, the “IP1 Basal” value [1] was 3.818, the “IP1 logEC50” value [1] was -5.036 and the EC50 (Tet-On MRGPRX4, over 1pg/cell Normalized, Dox 3300 ng/mL (Fig. S5C), read-out: IP1 EC50) was 9.2 µM. For the same molecule, the Emax (Tet-On MRGPRX4, over 1pg/cell Normalized, Dox 3300 ng/mL (Fig. S5C), read-out: IP1 Emax) was 111%, the Emax (Tet-On MRGPRX4, over 1pg/cell Normalized, Dox 3300 ng/mL (Fig. S5C), read-out: IP1 span) was 107% and the “IP1 Basal” value (Tet-On MRGPRX4, over 1pg/cell Normalized, No dox (Fig. S5C)) was -1.726. For the same molecule, the Emax (Tet-On MRGPRX4, over 1pg/cell Normalized, No dox (Fig. S5C), read-out: IP1 Emax) was 55.6%, the Emax (Tet-On MRGPRX4, over 1pg/cell Normalized, No dox (Fig. S5C), read-out: IP1 span) was 57.3% and the “IP1 Basal” value (Tet-On MRGPRX4:RAMP Ratio 1:0 (Fig. S5D-F)) was 8.926. It also gave an EC50 (Tet-On MRGPRX4:RAMP Ratio 1:0 (Fig. S5D-F), read-out: IP1 EC50) of 4.06 µM, an Emax (Tet-On MRGPRX4:RAMP Ratio 1:0 (Fig. S5D-F), read-out: IP1 Emax) of 107% and an Emax (Tet-On MRGPRX4:RAMP Ratio 1:0 (Fig. S5D-F), read-out: IP1 span) of 97.7%. For the same molecule, the “IP1 Basal” value (Tet-On MRGPRX4:RAMP Ratio 1:0, no dox (Fig. S5D-F)) was 0.2822, the Emax (Tet-On MRGPRX4:RAMP Ratio 1:0, no dox (Fig. S5D-F), read-out: IP1 Emax) was 2.46% and the Emax (Tet-On MRGPRX4:RAMP Ratio 1:0, no dox (Fig. S5D-F), read-out: IP1 span) was 2.17%. The “IP1 Basal” value (construct FLAG-MRGPRX4-1D4 (Fig. S4A-F)) was 6.903, the EC50 (construct FLAG-MRGPRX4-1D4 (Fig. S4A-F), read-out: IP1 EC50) was 10.1 µM and the Emax (construct FLAG-MRGPRX4-1D4 (Fig. S4A-F), read-out: IP1 Emax) was 102%. For the same molecule, the Emax (construct FLAG-MRGPRX4-1D4 (Fig. S4A-F), read-out: IP1 span) was 95.1%, the “IP1 Basal” value (construct FLAG-MRGPRX4-GFP10-1D4 (Fig. S4A-F)) was 7.722 and the EC50 (construct FLAG-MRGPRX4-GFP10-1D4 (Fig. S4A-F), read-out: IP1 EC50) was 9.91 µM. For the same molecule, the Emax (construct FLAG-MRGPRX4-GFP10-1D4 (Fig. S4A-F), read-out: IP1 Emax) was 110%, the Emax (construct FLAG-MRGPRX4-GFP10-1D4 (Fig. S4A-F), read-out: IP1 span) was 102% and the “IP1 Basal” value (construct FLAG-NLuc-HT7-MRGPRX4-GFP10-1D4 (Fig. S4A-F)) was 8.575. For the same molecule, the EC50 (construct FLAG-NLuc-HT7-MRGPRX4-GFP10-1D4 (Fig. S4A-F), read-out: IP1 EC50) was 6.41 µM, the Emax (construct FLAG-NLuc-HT7-MRGPRX4-GFP10-1D4 (Fig. S4A-F), read-out: IP1 Emax) was 55.2% and the Emax (construct FLAG-NLuc-HT7-MRGPRX4-GFP10-1D4 (Fig. S4A-F), read-out: IP1 span) was 46.6%. For the same molecule, the “IP1 Basal” value (construct HA-MRGPRX4-1D4 (Fig. S4A-F)) was 13.13, the EC50 (construct HA-MRGPRX4-1D4 (Fig. S4A-F), read-out: IP1 EC50) was 10.7 µM and the Emax (construct HA-MRGPRX4-1D4 (Fig. S4A-F), read-out: IP1 Emax) was 91.5%. For the same molecule, the Emax (construct HA-MRGPRX4-1D4 (Fig. S4A-F), read-out: IP1 span) was 78.4%, the “IP1 accumulation (normalized)” value (log [nateglinide] (M) -4, MRGPRX4 no dox) was 1.452 and the “IP1 accumulation (normalized)” value (log [nateglinide] (M) -4.69897, MRGPRX4) was 92.3953. For the same molecule, the “IP1 accumulation (normalized)” value (log [nateglinide] (M) -5.39794, MRGPRX4) was 57.3306, the “IP1 accumulation (normalized)” value (log [nateglinide] (M) -6.09691, MRGPRX4) was 20.5565 and the “IP1 accumulation (normalized)” value (log [nateglinide] (M) -6.79588, MRGPRX4) was 15.0154. For the same molecule, the “IP1 accumulation (normalized)” value (log [nateglinide] (M) -7.49485, MRGPRX4) was 11.7498.
